From patent US20130217132A1, “METHODS, COMPOSITIONS AND USE FOR ENHANCING CHEMICAL TOLERANCE BY MICROORGANISMS” (priority 2009, published 2013)
Values after ≈ are worked out from the molar mass of the structure shown. Where two headings read alike, the source gives them in different places.

Key:
BW25113 E. coli strain = test: Minimum inhibitory concentration (MIC) assay of furfural in MOPS minimal media; type: cell-based; settings: Escherichia coli, n=3, read-out: MIC (first concentration of furfural that inhibited bacterial growth)
Protocol: In one exemplary method, assays were performed to determine minimum inhibitory concentration (MIC) of ethanol, furfural and acetate for BW25113 and MG1655 E. coli strains. FIG. 16 represents a histogram plot of illustrating tolerance differences of furfural in BW25113 and MG1655 E. coli strains. Cells from each strain were inoculated from the same optical density into a total of 100 μL of varying furfural concentrations in a minimal media, for example using MOPS. Cell growth in the first 24 hr or 48 hr in the presence of furfural was monitored. The left bar in each pair for each indicated strain represents a first concentration of furfural that inhibited bacterial growth after 24 hr. The right bar for each strain represents the first concentration that inhibited growth after 48 hr. The MIC reads were the average of triplicates (n=3), and error bars represent standard deviation. […] Thus, this difference in strains led to further investigation into the difference between these strains. ArecA signifies strains where the gene has been knocked out as previously described.

MG1655 E. coli strain = test: as above; type: cell-based; settings: Escherichia coli
Protocol: (§1) In one exemplary method, assays were performed to determine minimum inhibitory concentration (MIC) of ethanol, furfural and acetate for BW25113 and MG1655 E. coli strains. […] Cells from each strain were inoculated from the same optical density into a total of 100 μL of varying furfural concentrations in a minimal media, for example using MOPS. Cell growth in the first 24 hr or 48 hr in the presence of furfural was monitored. The left bar in each pair for each indicated strain represents a first concentration of furfural that inhibited bacterial growth after 24 hr. The right bar for each strain represents the first concentration that inhibited growth after 48 hr. The MIC reads were the average of triplicates (n=3), and error bars represent standard deviation. […] ArecA signifies strains where the gene has been knocked out as previously described.
(§2) The minimum inhibitory concentration (MIC) of furfural of MG1655 and BW25113 with or without lpcA overexpression was determined. MIC assays were performed as described in Example 13. […] MIC reads were average of triplicates (n=3), and error bars represent standard deviation. The SDS-PAGE gel image in FIG. 17C represents LPS level of the cells indicated above the gel image (duplicate of each cell sample was presented). LPS was extracted from the indicated cells grown to exponential phase. Loading of LPS the SDS-PAGE gel was normalized to the cell number. The gel was stained for visualization after desired separation of LPS was obtained.

[1] = tested on: BW25113 ArecA transformed with the blank vector (pBTL-1); test: MIC assay of furfural, blank vector strain; type: cell-based, E. coli; settings: for MIC of furfural: blank vector, FIG. 18B
Protocol: as §1, §2
In another exemplary method, MIC was determined when MG1655 and BW25113 strains were fed with various carbon sources. MIC assays were performed in the presence of furfural. Glucose, Xylose or Ribose was supplemented with a minimal media for cell growth. […] MICs were read at the indicated time (24 hr or 48 hr), the average of triplicates was presented and error bars represent standard deviation. ‘Blank vector’ refers to the pBTL-1 vector, which served as the control. […]

[2] = tested on: BW25113 araC::FRT-kan clone (JW0063); test: Cell growth (OD600) in MOPS minimal media with furfural, araC knockout; type: cell-based, E. coli; settings: furfural 1 g/L
Protocol: In other exemplary methods, tolerance and expression of LPS was restored in a microorganism. FIG. 19 represents an example of restoration of tolerance and LPS expression in BW25113 ArecA clone. The indicated cells were grown in MOPS minimal media supplemented with glucose as a carbon source. Furfural was added to the media at the concentration of 1 g/L. Arabinose was added at 10 mM where indicated to gauge effect of AraC binding. The BW25113 araC::FRT-kan clone corresponds to JW0063, a BW25113 araC knockout mutant ordered from the Keio Collection directly. pBTL-1 represented the blank vector, and pLPCA referred to lpcA gene overexpression. Consistent with the Examples above, overexpression of lpcA gene increased cell growth (OD600 of 0.1 vs. 0.05) in the presence of furfural. Addition of Arabinose to the lpcA gene overexpression cells could further enhance the effect (OD600 of 0.3). […] To analyze the LPS level in the cells indicated in FIG. 19, LPS are extracted from the cells grown to exponential phase. Loading of LPS for the protein gel is normalized to the cell number. The gel is stained to visualize LPS protein bands after desired separation is obtained.
BW25113, MG1655, and derivatives were used where indicated. JW0063, an araC mutant of BW25113 was obtained from the Coli Genetic Stock Center (Yale). Overnight bacterial cultures were grown in Luria-Bertani medium with shaking. […]

[3] = tested on: pBTL-1 Control (blank vector) culture; test: Aerobic growth (specific growth, final OD600) in MOPS minimal media with inhibitor, control; type: cell-based, E. coli; settings: aerobic growth in 1 g/L furfural
Protocol: (§3) Certain experiments described herein were performed in E. coli BW25113 recA-, with the kanamycin resistance gene removed.
(§4) Cultures were grown in 10 ml MOPS minimal media, 100 μg carbenicillin/ml, and either 1 g furfural/1 supplemented, 2 g HMF/1, or 4 g acetate/1, in 15 ml conical tubes at 37° C. The optical density of 1 ml culture was measured with a spectrophotometer at 600 nm. A natural log transformation of the data was then calculated and then a regression line was fit to the data to calculate specific growth, which is […] to the culture doubling time. The blank vector, pBTL-1, served as the control. The lpcA gene was cloned into the pBTL-1 using standard cloning techniques and primers designed to amplify the gene from template DNA.

pBTL-1 lpcA culture = type: cell-based, E. coli; settings: aerobic growth in 1 g/L furfural
Protocol: as §3, §4

E. coli LYO1 = settings: cited from earlier work

**Q.** For `O=Cc1ccco1` [furfural, furan-2-carbaldehyde], which MIC (BW25113 E. coli strain; BW25113, after 24 hr) is on record?
**A.** 500 µg/mL (≈ 5.2 mM)

**Q.** And the MIC (BW25113 E. coli strain; BW25113, after 48 hr)?
**A.** 1200 µg/mL (≈ 12.5 mM)

**Q.** What about the MIC (MG1655 E. coli strain; MG1655, read-out: MIC of furfural) of the same compound?
**A.** 1250 µg/mL

**Q.** What about the MIC (MG1655 E. coli strain; MG1655, after 24 hr, n=3, read-out: MIC (first concentration of furfural that inhibited bacterial growth)) of the same compound?
**A.** 1200 µg/mL (≈ 12.5 mM)

**Q.** What about the MIC (MG1655 E. coli strain; MG1655, after 48 hr, n=3, read-out: MIC (first concentration of furfural that inhibited bacterial growth)) of the same compound?
**A.** 1800 µg/mL (≈ 18.7 mM)

**Q.** What about the MIC ([1]; Escherichia coli, BW25113, read-out: MIC of furfural) of the same compound?
**A.** 500 µg/mL

**Q.** And the MIC of furfural ([1]; glucose as carbon source)?
**A.** 500 µg/mL

**Q.** What about the MIC of furfural ([1]; xylose as carbon source) of the same compound?
**A.** 500 µg/mL

**Q.** And the “OD600 (cell growth in the presence of furfural)” value ([2]; araC::FRT-kan without lpcA overexpression, no Arabinose)?
**A.** 0.5

**Q.** What about the “OD600 (cell growth in the presence of furfural)” value ([2]; araC::FRT-kan, Arabinose 10 mM) of the same compound?
**A.** 1.0

**Q.** And the “Final OD600 (24 hr)” value [3]?
**A.** 0.586

**Q.** What about the “Specific Growth” value ([3]; n=3) of the same compound?
**A.** 0.111 h⁻¹

**Q.** And the “Final OD600 (24 hr)” value (pBTL-1 lpcA culture)?
**A.** 0.918

**Q.** What about the “Specific Growth” value (pBTL-1 lpcA culture; n=3) of the same compound?
**A.** 0.153 h⁻¹

**Q.** And the ethanol production (E. coli LYO1)?
**A.** inhibited
